According to ChEMBL document CHEMBL1143128, “Imidazo[1,2-a]pyridine derivatives as inhibitors of TNF-alpha expression in T cells” (Bioorg Med Chem, 2008):
≈ marks a conversion by molar mass, not a printed value. Calls of active or inactive are those of the source. No cut-off for these calls is given here.

Tests used:
U-937 [1] = experiment: Inhibition of TPA-stimulated TNFalpha production in human U937 cells; assay type: functional, cell-based
Jurkat [2] = experiment: Inhibition of TPA/ionomycin-stimulated human TNFalpha promoter expression in human Jurkat T cells by luciferase reporter gene assay; assay type: functional, cell-based
HL-60 = experiment: Cytotoxicity against human HL60 cells after 48 hrs; assay type: functional; conditions: HL-60, 48 h
RAW [3] = experiment: Cytotoxicity against mouse RAW […] cells after 48 hrs; assay type: functional
U-937 [4] = experiment: Cytotoxicity against human U937 cells after 48 hrs; assay type: functional; conditions: U-937, 48 h
HeLa [5] = experiment: Cytotoxicity against human HeLa S3 cells after 48 hrs; assay type: functional
Jurkat [6] = experiment: Cytotoxicity against human Jurkat cells after 48 hrs; assay type: functional
[7] = Cytotoxicity against human COLO320 cells after 48 hrs; assay type: functional; conditions: COLO 320, 48 h
HepG2 [8] = experiment: Cytotoxicity against human HepG2 cells after 48 hrs; assay type: functional; conditions: HepG2, 48 h
Jurkat [9] = experiment: Inhibition of TPA/ionomycin-stimulated human TNFalpha promoter expression in human Jurkat T cells at 55 uM by luciferase reporter gene assay relative to control; assay type: functional; set-up: scale not given: the % may be the effect or the level left
RAW [10] = experiment: Inhibition of LPS/IFN-gamma-induced COX2 gene expression in mouse RAW 264.7 cells; assay type: functional, cell-based
[11] = target: MAP kinase p38 (Homo sapiens) (UniProt O15264+Q15759+Q16539+P53778); experiment: Inhibition of TPA/ionomycin-induced p38 kinase phosphorylation in human Jurkat cells upto 10 ug/ml by Western blotting; assay type: cell-based
HepG2 [12] = experiment: Inhibition of IL6-stimulated IL6 gene promoter expression in human HepG2 cells by SEAP reporter gene assay; assay type: functional, cell-based
HeLa [13] = experiment: Inhibition of IFN-alpha-stimulated GAS/ISRE gene promoter expression in human HeLa S3 cells by SEAP reporter gene assay; assay type: functional, cell-based
Jurkat [14] = experiment: Inhibition of TPA-stimulated NF-kappaB gene promoter expression in human Jurkat cells by SEAP reporter gene assay; assay type: functional, cell-based
Jurkat [15] = experiment: Inhibition of TPA-stimulated COX2 gene promoter expression in human Jurkat cells by luciferase reporter gene assay; assay type: functional, cell-based
Jurkat [16] = experiment: Inhibition of TPA-stimulated NF-AT/AP1 gene promoter expression in human Jurkat cells by SEAP reporter gene assay; assay type: functional, cell-based
[17] = target: Mitogen-activated protein kinase 3 (Homo sapiens) (UniProt P27361); experiment: Inhibition of TPA/ionomycin-induced ERK1 phosphorylation in human Jurkat cells upto 10 ug/ml by Western blotting; assay type: cell-based
HeLa [18] = experiment: Inhibition of TPA-stimulated AP1 gene promoter expression in human HeLa S3 cells by SEAP reporter gene assay; assay type: functional, cell-based
[19] = target: Mitogen-activated protein kinase 1 (Homo sapiens) (UniProt P28482); experiment: Inhibition of TPA/ionomycin-induced ERK2 phosphorylation in human Jurkat cells upto 10 ug/ml by Western blotting; assay type: cell-based
RAW [20] = experiment: Inhibition of LPS/IFN-gamma-induced iNOS gene expression in mouse RAW 264.7 cells; assay type: functional, cell-based

Chain of Mitogen-activated protein kinase 3 (Homo sapiens) (P27361 whole entry): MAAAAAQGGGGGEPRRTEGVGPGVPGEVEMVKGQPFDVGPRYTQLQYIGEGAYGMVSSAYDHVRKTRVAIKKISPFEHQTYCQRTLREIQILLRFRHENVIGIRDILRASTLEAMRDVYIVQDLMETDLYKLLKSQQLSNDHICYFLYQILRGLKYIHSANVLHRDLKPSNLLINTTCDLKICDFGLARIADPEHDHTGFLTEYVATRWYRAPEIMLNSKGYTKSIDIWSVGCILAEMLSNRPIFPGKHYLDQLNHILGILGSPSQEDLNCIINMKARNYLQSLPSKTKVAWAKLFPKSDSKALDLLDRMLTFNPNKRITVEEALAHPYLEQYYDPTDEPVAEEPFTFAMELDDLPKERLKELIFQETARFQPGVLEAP
Chain of Mitogen-activated protein kinase 1 (Homo sapiens) (P28482 whole entry): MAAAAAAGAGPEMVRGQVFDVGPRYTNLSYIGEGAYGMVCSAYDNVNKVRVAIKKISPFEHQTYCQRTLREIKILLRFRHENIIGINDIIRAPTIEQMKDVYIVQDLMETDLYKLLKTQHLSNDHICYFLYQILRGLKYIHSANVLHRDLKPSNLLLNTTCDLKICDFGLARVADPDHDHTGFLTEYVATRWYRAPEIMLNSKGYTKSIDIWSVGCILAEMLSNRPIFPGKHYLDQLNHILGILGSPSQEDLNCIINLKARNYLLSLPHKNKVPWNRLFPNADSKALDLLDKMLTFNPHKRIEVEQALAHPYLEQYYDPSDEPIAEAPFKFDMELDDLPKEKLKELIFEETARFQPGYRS

Compound	IC50 (U-937 [1])	IC50 (Jurkat [2])	CC50 (HL-60)	CC90 (HL-60)	CC50 (RAW [3])	CC90 (RAW [3])	CC50 (U-937 [4])	CC90 (U-937 [4])	CC50 (HeLa [5])	CC50 (Jurkat [6])	CC90 (Jurkat [6])	CC50 [7]	CC90 [7]	CC50 (HepG2 [8])	CC90 (HeLa [5])	also measured
CCCCCCCCCCCC(=O)C(=O)/C=C/C(=O)O	–	–	–	–	–	–	–	–	–	–	–	–	–	–	–	Activity (Jurkat [2]): inactive
CCCCCCCCCCCC(=O)[C@]1(O)C[C@H](C(=O)OC)C(C(=O)OCC)=C2N(Cc3ccccc3)CCN21	4.6 µM	3.6 µM	10 µg/mL (≈ 18.4 µM)	25 µg/mL (≈ 46.1 µM)	5 µg/mL (≈ 9.21 µM)	25 µg/mL (≈ 46.1 µM)	10 µg/mL (≈ 18.4 µM)	25 µg/mL (≈ 46.1 µM)	10 µg/mL (≈ 18.4 µM)	10 µg/mL (≈ 18.4 µM)	50 µg/mL (≈ 92.1 µM)	10 µg/mL (≈ 18.4 µM)	50 µg/mL (≈ 92.1 µM)	50 µg/mL (≈ 92.1 µM)	25 µg/mL (≈ 46.1 µM)	Activity (RAW [10]): inactive; Activity [11]: inactive; IC50 (HepG2 [12]): 18.4 µM; IC50 (HeLa [13]): 4.6 µM; IC50 (Jurkat [14]): 4.6 µM; IC50 (Jurkat [15]): 4.6 µM; IC50 (Jurkat [16]): 4.6 µM; Activity [17]: inactive; IC50 (HeLa [18]): 4.6 µM; Activity [19]: inactive; Activity (RAW [20]): inactive

The next lines start with results.

IC50 (U-937 [1])	IC50 (Jurkat [2])	Compound	CC50 (HL-60)	CC90 (HL-60)	CC50 (RAW [3])	CC90 (RAW [3])	CC50 (U-937 [4])	CC90 (U-937 [4])	CC50 (HeLa [5])	CC50 (Jurkat [6])	CC90 (Jurkat [6])	CC50 [7]	CC90 [7]	CC50 (HepG2 [8])	CC90 (HeLa [5])	also measured
10 µg/mL	–	CCOC(=O)/C=C1\NCCN1Cc1ccccc1	–	–	–	–	–	–	–	–	–	–	–	–	–	–
–	9.5 µM	CCCCCCCCCCCC(=O)[C@]1(O)C[C@H](C(=O)O)C(C(=O)OCC)=C2N(Cc3ccccc3)CCN21	10 µg/mL (≈ 18.9 µM)	50 µg/mL (≈ 94.6 µM)	10 µg/mL (≈ 18.9 µM)	50 µg/mL (≈ 94.6 µM)	10 µg/mL (≈ 18.9 µM)	25 µg/mL (≈ 47.3 µM)	25 µg/mL (≈ 47.3 µM)	10 µg/mL (≈ 18.9 µM)	50 µg/mL (≈ 94.6 µM)	10 µg/mL (≈ 18.9 µM)	50 µg/mL (≈ 94.6 µM)	> 50 µg/mL	–	–
–	9.5 µM	CCCCCCCCCCCC(=O)[C@]1(O)C[C@H](C(=O)OCC)C(C(=O)OCC)=C2N(Cc3ccccc3)CCN21	10 µg/mL (≈ 18 µM)	25 µg/mL (≈ 44.9 µM)	5 µg/mL (≈ 8.98 µM)	25 µg/mL (≈ 44.9 µM)	10 µg/mL (≈ 18 µM)	25 µg/mL (≈ 44.9 µM)	10 µg/mL (≈ 18 µM)	10 µg/mL (≈ 18 µM)	50 µg/mL (≈ 89.8 µM)	10 µg/mL (≈ 18 µM)	> 50 µg/mL	50 µg/mL (≈ 89.8 µM)	50 µg/mL (≈ 89.8 µM)	Activity (Jurkat [9]): 25%
